Experimental data: patent US20040072770A1, “Methods for specifically inhibiting histone deacetylase-7 and 8” (priority 2002, published 2004)

What was measured:
[1] = target: T1, HDAC-7 (Homo sapiens, UniProt Q8WUI4); test: Enzyme inhibitory activity, HD7; format: biochemical; settings: read-out: IC50 HD 7
T1 sequence (Q8WUI4 1-952): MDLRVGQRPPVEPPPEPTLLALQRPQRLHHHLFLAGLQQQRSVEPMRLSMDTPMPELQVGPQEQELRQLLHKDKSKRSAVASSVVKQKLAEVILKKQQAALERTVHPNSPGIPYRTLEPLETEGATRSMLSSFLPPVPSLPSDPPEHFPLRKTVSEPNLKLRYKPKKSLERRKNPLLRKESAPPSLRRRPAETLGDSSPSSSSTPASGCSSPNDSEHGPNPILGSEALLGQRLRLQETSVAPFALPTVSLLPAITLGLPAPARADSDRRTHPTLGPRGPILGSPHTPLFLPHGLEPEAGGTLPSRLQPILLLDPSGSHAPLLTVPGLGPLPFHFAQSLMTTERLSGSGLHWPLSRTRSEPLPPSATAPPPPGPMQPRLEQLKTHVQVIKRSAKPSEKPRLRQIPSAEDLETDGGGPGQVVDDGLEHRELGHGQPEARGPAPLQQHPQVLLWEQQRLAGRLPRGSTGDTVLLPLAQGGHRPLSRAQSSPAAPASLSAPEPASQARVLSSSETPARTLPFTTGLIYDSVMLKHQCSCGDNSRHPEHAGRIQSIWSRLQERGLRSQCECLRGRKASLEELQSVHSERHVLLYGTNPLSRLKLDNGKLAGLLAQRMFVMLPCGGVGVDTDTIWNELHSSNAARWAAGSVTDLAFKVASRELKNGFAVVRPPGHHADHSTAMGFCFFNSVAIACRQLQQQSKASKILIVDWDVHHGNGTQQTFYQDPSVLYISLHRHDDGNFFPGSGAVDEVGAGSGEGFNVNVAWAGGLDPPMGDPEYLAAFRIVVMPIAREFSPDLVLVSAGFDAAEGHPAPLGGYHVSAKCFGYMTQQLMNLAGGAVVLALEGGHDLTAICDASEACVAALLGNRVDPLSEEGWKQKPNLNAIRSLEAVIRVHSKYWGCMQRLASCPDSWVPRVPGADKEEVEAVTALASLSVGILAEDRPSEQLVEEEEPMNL

[2] = test system: lung cancer cells H446; test: MTT assay, H446; format: cell-based; settings: Homo sapiens, NCI-H446; 72 hours; read-out: MTT IC50 H 446
Protocol: Effects of HDAC isotype-specific small molecule inhibitors on growth inhibition of various human cancer cells (from ATCC) in vitro were determined by MTT assays. Briefly, cells seeded in 96-well plates were incubated for 72 hours at 37° C. in a 5% CO2 incubator. MTT (Sigma) was added at a final concentration of 0.5 mg/ml and incubated with the cells for 4 hours before an equal volume of solubilization buffer (50% N,N-dimethylformamide, 20% SDS, pH 4.7) was added onto cultured cells. After overnight incubation, solubilized dye was quantified by colorimetric reading at […] using a reference at 630 nM. OD values were converted to cell numbers according to a standard growth curve of the relevant cell line. The concentration which reduces cell numbers to 50% of those of DMSO-treated cells is determined as MTT IC50. In Table 4, IC50s of several HDAC7 or HDAC8 inhibitors in MTT assays in various human cancer cell lines were listed. They include colon cancer cells HCT116 and SW48, lung cancer cells A549 and H446, breast cancer cells MCF-7 and MDAmb231, a prostate cancer cell line Du145 and a bladder cancer cell line T24.

[3] = target: T2, HDAC-8 (Homo sapiens, UniProt Q9BY41); test: Enzyme inhibitory activity, HD8; format: biochemical; settings: read-out: IC50 HD 8
T2 sequence (Q9BY41 1-377): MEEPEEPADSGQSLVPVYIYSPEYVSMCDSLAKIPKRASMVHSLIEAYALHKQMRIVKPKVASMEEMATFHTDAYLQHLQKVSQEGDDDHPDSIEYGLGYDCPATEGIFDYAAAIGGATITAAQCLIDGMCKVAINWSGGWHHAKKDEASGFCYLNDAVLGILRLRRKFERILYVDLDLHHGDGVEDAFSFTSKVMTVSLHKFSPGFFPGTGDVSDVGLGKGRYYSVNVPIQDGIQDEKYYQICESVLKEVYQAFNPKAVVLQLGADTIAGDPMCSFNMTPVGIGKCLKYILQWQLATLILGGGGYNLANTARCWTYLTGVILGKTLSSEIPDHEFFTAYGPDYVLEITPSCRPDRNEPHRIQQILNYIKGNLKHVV

[4] = test system: colon carcinoma cells SW48 tumors; test: Tumor growth in a mouse model, SW48; format: in vivo; settings: (6,0,O): oral; BALB/c nude mice; vs vehicle-treated
Protocol: (§1) Female BALB/c nude mice are obtained from Charles River Laboratories (Charles River, N.Y.) and used at age 8-10 weeks. Human tumor cells (2×10^6, colon carcinoma cells HCT116 or SW48, lung carcinoma cells A549, pancreatic carcinoma Panc-1, ovarian carcinoma cells ES2, or prostate carcinoma cells Du145) are injected subcutaneously in the animal's flank and allowed to form solid tumors. Tumor fragments are serially passaged a minimum of three times, then approximately 30 mg tumor fragments are implanted subcutaneously through a small surgical incision under general anaesthesia. Small molecule inhibitor administration by intraperotineal or oral administration was initiated when the tumors reached a volume of 100 mm^3. For intraperotineal administration, small molecule inhibitors of HDAC-7, HDAC-8 or both, or in combination with small molecule inhibitors of HDAC-1 (20-60 mg/kg body weight/day) are dissolved in 100% DMSO and administered daily by injection. For oral administration, small molecule inhibitors of HDAC (60 mg/kg body weight) are dissolved in saline acidified with 0.2 N HCl. Tumor volumes are monitored twice weekly up to 20 days. Each experimental group contains at least 6-8 animals. Percentage inhibition is calculated using volume of tumor from vehicle-treated mice as controls. […]

[5] = test system: pancreatic carcinoma Panc-1 tumors; test: Tumor growth in a mouse model, Panc-1; format: in vivo; settings: BALB/c nude mice, vs vehicle-treated
Protocol: as §1

[6] = test system: lung carcinoma cells A549 tumors; test: Tumor growth in a mouse model, A549; format: in vivo; settings: BALB/c nude mice, vs vehicle-treated
Protocol: as §1

[7] = test system: prostate carcinoma cells Du145 tumors; test: Tumor growth in a mouse model, Du145; format: in vivo; settings: (60,I): 60 mg/kg body weight/day, intraperitoneal; BALB/c nude mice; vs vehicle-treated
Protocol: as §1

Row | SMILES | IC50 [1] [µM] | IC50 [2] [µM] | IC50 [3] [µM] | % of Inhibition of Tumor Growth in Vivo SW 48 [4] | % of Inhibition of Tumor Growth in Vivo PANC-1 ([5]; (60,O): 60 mg/kg body weight, oral) | % of Inhibition of Tumor Growth in Vivo A 549 ([6]; (5,0,O): oral) | % of Inhibition of Tumor Growth in Vivo DU 145 [7] | % of Inhibition of Tumor Growth in Vivo PANC-1 ([5]; (3,0,I): intraperitoneal) | % of Inhibition of Tumor Growth in Vivo A 549 ([6]; (30,I): 30 mg/kg body weight/day, intraperitoneal)
1 | Cc1ccc(S(=O)(=O)Nc2ccc(/C=C/C(=O)Nc3ccccc3N)cc2)cc1 [Compound 5, N-(2-Aminophenyl)-3-[4-(4-methylbenzenesulfonylamino)-phenyl]-acrylamide] | 20 | 1 | > 50 | – | – | – | – | – | –
2 | Nc1ccccc1NC(=O)c1ccc(CSc2nc3ccccc3[nH]2)cc1 [Compound 16, N-(2-Amino-phenyl)-4-(1H-benzimidazol-2-ylsulfanylmethyl)-benzamide] | 38 | 1 | – | – | – | – | – | – | –
3 | COc1ccc(NCc2ccc(C(=O)Nc3ccccc3N)cc2)cc1OC [Compound 17, N-(2-Aminophenyl)-4-[(3,4-dimethoxyphenylamino)-methyl]-benzamide] | 45 | 0.9 | > 50 | 68(6,0,O) % | 78(60,O) % | 67(5,0,O) % | >50(60,I) % | – | –
4 | COc1ccc(-c2ccnc(NCc3ccc(C(=O)Nc4ccccc4N)cc3)n2)cc1OC [Compound 21, N-(2-Amino-phenyl)-4-{[4-(3,4-dimethoxy-phenyl)-pyrimidin-2-ylamino]-methyl}-benzamide] | 37 | 0.3 | > 50 | – | – | – | – | >50(3,0,I) % | >50(30,I) %
